Target: potassium channels (Sus scrofa, UniProt F1SR11)
Assay: Functional potassium channel opening activity in isolated Landrace pig bladder strips (field-stimulated twitch)
Conditions: for Landrace Pig Bladder Index: ED50 for P1075 divided by ED50 for the test agonist, averaged over tissues; for Landrace Pig Bladder pD2: negative logarithm of ED50; for Emax: pig; for Emax / Landrace Pig Bladder Efficacy (% P1075): maximal efficacy relative to P1075, field stimulation 0.05Hz, 0.5 milli-seconds at 20 volts
Description: The entire bladder was removed and ed into Krebs Ringer bicarbonate solution (composition, mM: NaCl,; dextrose, 1; KCl, 4.7; […] Propranolol (0.004 ed in all of the assays to block […]. The trigonal and dome […]. Strips 3-5 mm wide and 20 mm long were prepared from the cut in a circular fashion. The mucosal layer was removed. One end ationary glass rod and the other to a Grass FT03 transducer at a basal am. Two parallel platinum electrodes were included in the stationary ide field stimulation of 0.05Hz, 0.5 milli-seconds at 20 volts. […] Tissues were allowed to equilibrate for at least 60 minutes and primed with 80 mM KCl. A control concentration response curve (cumulative) was generated for each tissue using the potassium channel opener […] as the control agonist. […] After a 60 minute rinsing period, a concentration response curve (cumulative) was generated for the test agonist in the same fashion as that used for the control agonist […]. The maximal efficacy of each compound (expressed as % relative to […]) is reported. […] J. Physiol. 235, E97 (1980)), and agonist potencies were expressed as pD2 (the negative logarithm). Agonist potencies were also expressed as an index relative to […]. The index was calculated by dividing the ED50 for […] by the ED50 for the test agonist in a given tissue. Each tissue was used for only one test agonist, and the indices obtained from each tissue were averaged to provide an average index of potency.

Landrace Pig Bladder Index | Landrace Pig Bladder pD2 | Emax [%] | Landrace Pig Bladder Efficacy (% P1075) | Compound
0.062 | 5.9 | 100 |  | O=C1CCCC2=C1C(c1ccc(Br)s1)C1=C(CCS1(=O)=O)N2 (single isomer, unassigned) [Example 167, 9-(5-bromo-2-thienyl)-2,3,5,6,7,9-hexahydrothieno[3,2-b]quinolin-8(4H)-one, 1,1-dioxide]
0.31 | 6.4 |  | 94 | O=C1CCCC2=C1C(c1ccc(F)c(Br)c1)C1=C(CCCS1(=O)=O)N2 (single isomer, unassigned; (-)) [Example 94, (−)-10-(3-bromo-4-fluorophenyl)-3,4,6,7,8,10-hexahydro-2H-thiopyrano[3,2-b]quinolin-9(5H)-one 1,1-dioxide]
0.20 | 6.3 | 99 |  | Cc1ccc(C2C3=C(CCCC3=O)NC3=C2S(=O)(=O)CC3)cc1[N+](=O)[O-] (single isomer, unassigned) [Example 126, 9-(4-methyl-3-nitrophenyl)-2,3 5,6,7,9-hexahydro[3. 2-b]guinolin-8(4H)-one, 1,1-dioxide]
0.15 | 6.2 | 99 |  | O=C1CCC2=C1C(c1ccc(Cl)c([N+](=O)[O-])c1)C1=C(CCS1(=O)=O)N2 (stereo not drawn) [Example 44, 8-(4-chloro-3-nitrophenyl)-2,3,4,5,6,8-hexahydro-7H-cyclopenta[b]thieno[2,3-e]pyridin-7-one 1,1-dioxide]
0.40 | 6.7 | 100 |  | O=C1CCC2=C1C(c1ccc(Cl)c(Cl)c1)C1=C(CCS1(=O)=O)N2 (single isomer, unassigned) [Example 146]
0.12 | 5.6 | 84 |  | O=C1CCCC2=C1C(c1ccc(Cl)c(Cl)c1)C1=C(CCS1(=O)=O)N2 (single isomer, unassigned; (+)) [Example 95, (+)-9-(3,4-dichlorophenyl)-2,3,5,6,7,9-hexahydrothieno[3,2-b]quinolin-8(4H)-one, 1,1-dioxide]
0.0053 | 4.4 | 81 |  | CC1=C(S(C)(=O)=O)C(c2ccc(C)c([N+](=O)[O-])c2)C2=C(CCCC2=O)N1 (stereo not drawn) [Example 23, 4,6,7,8-tetrahydro-2-methyl-4-(4-methyl-3-nitrophenyl)-3-(methylsulfonyl)-5(1H)-quinolinone]
0.022 | 5.5 | 100 |  | O=C1CCCC2=C1C(c1cccc([N+](=O)[O-])c1)C1=C(CCCS1(=O)=O)N2 (stereo not drawn) [Example 1, 3,4,6,7,8,10-hexahydro-10-(3-nitrophenyl)-2H-thiopyrano[3,2-b]quinolin-9(5H)-one, 1,1-dioxide]
0.040 | 5.5 | 97 |  | CC(=O)C1=C(C)NC2=C(C1c1ccc(Cl)c([N+](=O)[O-])c1)S(=O)(=O)CCC2 (stereo not drawn) [Example 36]
1.2 | 6.6 | 80 |  | O=C1CCCC2=C1C(c1ccc(F)c(I)c1)C1=C(CCS1(=O)=O)N2 (single isomer, unassigned) [Example 149, 9-(4-fluoro-3-iodophenyl)-2,3,5,6,7,9-hexahydrothieno[3 2-b]quinolin-8(4H)-one, 1,1-dioxide]
0.44 | 6.5 |  | 100 | O=C1CCC2=C1C(c1ccc(F)c(Br)c1)C1=C(CCCS1(=O)=O)N2 (single isomer, unassigned; (-)) [Example 92]
0.011 | 5.0 | 100 |  | O=C1CCCC2=C1C(c1cccc(Cl)c1)C1=C(CCCS1(=O)=O)N2 (stereo not drawn) [Example 16, 10-(3-chlorophenyl)-3,4,6,7,8,10-hexahydro-2H-thiopyrano [3.2-b]quinolin-9(5H)-one, 1,1-dioxide]
0.14 | 6.2 | 98 |  | O=C1CCC2=C1C(c1ccc(Cl)c([N+](=O)[O-])c1)C1=C(CCCS1(=O)=O)N2 (stereo not drawn) [Example 38, 9-(4-chloro-3-nitrophenyl)-3,4,5,6,7,9-hexahydrocyclopenta[b]thiopyrano [2.3-e]pyridin-8(2H)-one, 1,1-dioxide]
0.71 | 7.1 | 100 |  | O=C1CCC2=C1C(c1ccc(F)c(Cl)c1)C1=C(CCS1(=O)=O)N2 (stereo not drawn) [Example 61, 8-(3-chloro-4-fluorophenyl)-2,3,4,5,6,8-hexahydro-7H-cyclopenta[b]thieno [2,3-e]pyridin-7-one, 1,1-dioxide]
0.073 | 5.9 | 92 |  | O=S1(=O)CCC2=C1C(c1ccc(F)c(Br)c1)C=C(C(F)(F)F)N2 (single isomer, unassigned) [Example 136, 7-(3-bromo-4-fluorophenyl)-5-(trifluoromethyl)-2, 3 4 7-tetrahydrothieno[3 2-b]pyridine, 1,1-dioxide]
0.17 | 6.6 | 100 |  | O=S1(=O)CCC2=C1C(c1ccc(F)c(Br)c1)C1=C(CCS1(=O)=O)N2 [Example 53, 8-(3-bromo-4-fluorophenyl)-2,3,4,5,6,8-hexahydrodithieno [3.2-b:2′,3′-e]pyridine, 1,1,7,7-tetraoxide]
0.021 | 5.4 | 99 |  | O=[N+]([O-])c1cc(C2C3=C(CCS3(=O)=O)NC3=C2S(=O)(=O)CC3)ccc1Cl [Example 51, 8-(4-chloro-3-nitrophenyl)-2,3,4,5,6,8-hexahydrodithieno [3,2-b:2′,3′-e]pyridine, 1,1 7,7-tetraoxide]
0.014 | 4.9 | 97 |  | N#Cc1cccc(C2C3=C(CCCC3=O)NC3=C2S(=O)(=O)CC3)c1 (single isomer, unassigned; (-)) [Example 114, (−)-9-(3-cyanophenyl)-2,3,5,6,7,9-hexahydrothieno[3,2-b]quinolin-8(4H)-one, 1,1-dioxide]
0.059 | 5.7 | 100 |  | O=C1CCCC2=C1C(c1ccc3nonc3c1)C1=C(CCS1(=O)=O)N2 (single isomer, unassigned; (+)) [Example 97, (+)-9-(2. 1,3-benzoxadiazol-5-yl)-2,3,5,6,7,9-hexahydrothieno[3.2-b]quinolin-8(4H)-one, 11-dioxide]
0.0076 | 4.8 | 96 |  | N#Cc1cccc(C2C3=C(CCCC3=O)NC3=C2S(=O)(=O)CCC3)c1 (stereo not drawn) [Example 5, 10-(3-cyanophenyl)-3,4,6,7,8,10-hexahydro-2H-thiopyrano [3,2-b]quinolin-9(5H)-one, 1,1-dioxide]
0.018 | 5.5 | 99 |  | N#Cc1cccc(C2C3=C(CCCC3=O)NC3=C2S(=O)(=O)CC3)c1 (stereo not drawn) [Example 30, 9-(3-cyanophenyl)-2,3,5,6,7,9-hexahydrothieno [3.2-b]quinolin-8(4H)-one, 1,1-dioxide]
